Experiments:
GBV-B = assay: Inhibition of GBV-B replication in tamarin hepatocytes in culture; type: cell-based
Method: Hepatocytes isolated from uninfected tamarins were maintained in culture in defined medium for several days. The cell culture model was as described by Beames et al. 2000. Three days after plating, the cells were infected with GBV-B-containing plasma. After viral adsorption, the virus was removed and the cells were incubated in the presence and absence of candidate test compounds at a concentration of 10 μM. The cells were harvested 7 days post infection. The levels of GBV-B RNA were quantitated from total cellular RNA by a real-time PCR assay using a primer-probe combination that recognized a portion of the GBV-B capsid gene (Beames et al. 2000).

[1] = system: HCV replicon-containing, Huh-7-derived cell lines; settings: human
[2] = target: T1, HCV genotype 1b NS3-NS4A protease (UniProt P26662); assay: Inhibition constant (Ki) determination and mode of inhibition, steady-state velocity, genotype 1b; type: biochemical
T1 construct: fused on or other part: 28 extra N-terminal residues with a hexahistidine tag and an rTEV cleavage site
Method: (§1) The fluorogenic depsipeptide substrate anthranilyl-D(d)EIVP-Nva[C(O)—O] AMY(3-N2)TW—OH (SEQ ID No.13) was used to assess the mechanism of inhibition and the inhibition constants of the compound (IV) against HCV NS3-NS4A proteases. It was cleaved between the norvaline and the alanine residues. The substrate working solution was prepared in DMSO at the concentration of 200 μM from the substrate stock solution (2 mM in DMSO stored at —20° C.). The final substrate concentration in the assay varied from 0.25 to 8 μM. The inhibition constant (Ki) for compound (IV) was determined using a steady-state velocity method (Morrisson et al. 1985). The protease activity was determined by monitoring the fluorescence change associated with the cleavage of the internally quenched fluorogenic substrate using a SLM-AMINCO® 8100 spectrofluorometer ([…]). The cleavage reaction was monitored in the presence of 0.25 to 8 μM of substrate, 0.3 nM of HCV 1a or 1b NS3-NS4A heterodimer protein and various concentrations of the test compound IV in 50 mM Tris-HCl, pH 8.0, 0.25M sodium citrate, 0.01% n-dodecyl-β-D-maltoside, 1 mM TCEP. The steady-state analysis of inhibition of the HCV genotype 1a and 1b NS3-NS4A heterodimer proteases were performed using the Dixon and Cornish-Bowden graphical methods. […]

[3] = target: T2, HCV genotype 1a NS3-NS4A protease (Hepatitis C virus genotype 1a, UniProt P27958); assay: Inhibition constant (Ki) determination and mode of inhibition, steady-state velocity, genotype 1a; type: biochemical
T2 construct: Co-purification of mature NS3 and NS4A protein complex was verified by Western blot analysis; made in house; host or cells: Sf21 insect cells, recombinant baculovirus (pFastBac HTa)
Method: as §1

[4] = target: T3, HCV genotype 3a NS3-NS4A protease (UniProt Q81258); assay: Inhibition constant (Ki) determination, genotype 3a; type: biochemical; settings: read-out: Ki HCV genotype 3a
T3 construct: fused on or other part: 28 extra N-terminal residues with a hexahistidine tag and an rTEV cleavage site
T3 sequence (Q81258 1033-1663): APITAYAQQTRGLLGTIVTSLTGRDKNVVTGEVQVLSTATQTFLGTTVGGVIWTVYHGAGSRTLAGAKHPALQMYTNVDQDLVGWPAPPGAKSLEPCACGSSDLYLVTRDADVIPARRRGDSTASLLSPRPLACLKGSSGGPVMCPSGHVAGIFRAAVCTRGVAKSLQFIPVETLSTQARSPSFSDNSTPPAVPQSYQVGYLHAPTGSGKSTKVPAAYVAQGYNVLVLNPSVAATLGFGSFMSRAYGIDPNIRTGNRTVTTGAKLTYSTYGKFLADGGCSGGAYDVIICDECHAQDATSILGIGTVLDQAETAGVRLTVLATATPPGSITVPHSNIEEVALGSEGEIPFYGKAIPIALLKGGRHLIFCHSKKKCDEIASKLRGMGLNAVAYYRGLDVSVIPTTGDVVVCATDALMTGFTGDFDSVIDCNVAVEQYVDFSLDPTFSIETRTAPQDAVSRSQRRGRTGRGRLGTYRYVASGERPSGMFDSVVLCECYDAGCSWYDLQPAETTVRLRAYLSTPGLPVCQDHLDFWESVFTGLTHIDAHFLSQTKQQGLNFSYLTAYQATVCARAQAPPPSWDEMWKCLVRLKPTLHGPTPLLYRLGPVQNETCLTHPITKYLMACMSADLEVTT

[5] = Dixon and Cornish-Bowden plots, GraFit

T2 sequence (P27958 1027-1657): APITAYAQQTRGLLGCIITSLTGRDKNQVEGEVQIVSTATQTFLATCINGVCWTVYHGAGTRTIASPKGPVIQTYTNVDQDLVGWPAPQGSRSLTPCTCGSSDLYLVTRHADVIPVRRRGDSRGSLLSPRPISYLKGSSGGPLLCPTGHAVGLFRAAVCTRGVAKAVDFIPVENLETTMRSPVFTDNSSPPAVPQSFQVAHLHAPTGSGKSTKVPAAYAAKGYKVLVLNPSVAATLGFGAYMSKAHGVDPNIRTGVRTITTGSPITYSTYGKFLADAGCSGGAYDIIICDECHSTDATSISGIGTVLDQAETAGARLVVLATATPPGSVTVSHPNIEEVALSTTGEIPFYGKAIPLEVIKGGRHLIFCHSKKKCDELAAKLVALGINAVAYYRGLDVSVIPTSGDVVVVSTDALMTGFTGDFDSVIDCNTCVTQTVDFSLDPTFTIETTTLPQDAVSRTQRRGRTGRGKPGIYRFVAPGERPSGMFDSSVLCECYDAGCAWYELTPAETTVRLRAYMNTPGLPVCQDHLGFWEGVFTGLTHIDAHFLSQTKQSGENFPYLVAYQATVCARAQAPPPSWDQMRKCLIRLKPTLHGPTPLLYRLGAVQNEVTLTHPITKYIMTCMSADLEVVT
T2 sequence (P27958 1658-1711): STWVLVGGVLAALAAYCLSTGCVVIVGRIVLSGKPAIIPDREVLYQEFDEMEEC
T1 sequence (P26662 1027-1657): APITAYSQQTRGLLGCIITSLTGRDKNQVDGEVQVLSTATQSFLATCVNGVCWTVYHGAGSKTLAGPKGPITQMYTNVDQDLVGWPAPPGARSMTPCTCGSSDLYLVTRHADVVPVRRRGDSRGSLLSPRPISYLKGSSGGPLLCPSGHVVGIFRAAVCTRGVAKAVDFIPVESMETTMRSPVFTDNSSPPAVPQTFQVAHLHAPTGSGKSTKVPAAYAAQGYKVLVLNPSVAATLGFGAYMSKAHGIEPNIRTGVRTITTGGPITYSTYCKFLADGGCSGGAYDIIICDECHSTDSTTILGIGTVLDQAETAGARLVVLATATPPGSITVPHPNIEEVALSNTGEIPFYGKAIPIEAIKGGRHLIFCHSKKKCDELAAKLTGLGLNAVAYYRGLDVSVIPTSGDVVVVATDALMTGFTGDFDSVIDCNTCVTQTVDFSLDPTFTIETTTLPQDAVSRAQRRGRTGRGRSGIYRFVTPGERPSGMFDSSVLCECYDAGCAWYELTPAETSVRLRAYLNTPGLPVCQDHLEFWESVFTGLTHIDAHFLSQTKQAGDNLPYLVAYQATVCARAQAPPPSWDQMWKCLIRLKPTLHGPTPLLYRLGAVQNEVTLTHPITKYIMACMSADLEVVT

Row | SMILES | inhibition of GBV-B replication (FIG. 7) (GBV-B) | reduction in the viral RNA levels (GBV-B; 10 μM, 7 days post infection, g.e./μg RNA) [log] | Cytotoxicity (concentration at which not observed) [1] | mode of inhibition, HCV genotype 1b NS3-NS4A protease [2, 5] | Ki ([2]; read-out: Ki HCV genotype 1b NS3-NS4A protease, steady-state velocity analysis) [nM] | Ki [3] [nM] | mode of inhibition, HCV genotype 1a NS3-NS4A protease [3, 5] | Ki [4] [nM]
1 | COc1ccc2c(O[C@@H]3C[C@H]4C(=O)N[C@]5(C(=O)O)CC5/C=C\CCCCC[C@H](NC(=O)OC(C)(C)C)C(=O)N4C3)cc(-c3csc(NC(C)=O)n3)nc2c1 (some centres unmarked) [III] | dose-dependent inhibition | > 3 | – | – | – | – | – | –
2 | COc1ccc2c(O[C@@H]3C[C@H]4C(=O)N[C@]5(C(=O)O)CC5/C=C\CCCCC[C@H](NC(=O)OC5CCCC5)C(=O)N4C3)cc(-c3csc(NC(C)C)n3)nc2c1 (some centres unmarked) [IV] | – | – | higher than 1000 nM | competitive | 0.66 | 0.3 | competitive | 90

Reference: US20050159345A1 (Boehringer Ingelheim International GmbH, priority 2002, published 2005)
